Target: T1, triosephosphate isomerase (TPI) (Saccharomyces cerevisiae, UniProt P00942)
T1 construct: gene TPI1; commercial Triosephosphate isomerase (from S. cerevisiae, Sigma)
T1 sequence (P00942 2-248): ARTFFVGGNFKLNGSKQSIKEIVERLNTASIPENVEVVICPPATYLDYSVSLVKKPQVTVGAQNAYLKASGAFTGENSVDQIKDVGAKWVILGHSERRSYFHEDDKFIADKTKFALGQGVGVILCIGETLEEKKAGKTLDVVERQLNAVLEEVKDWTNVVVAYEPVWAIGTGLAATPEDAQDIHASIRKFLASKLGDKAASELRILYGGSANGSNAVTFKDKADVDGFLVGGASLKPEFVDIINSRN
Test: coupled alpha-glycerophosphate dehydrogenase/NADH assay (A340) with purified TPI; also in vitro methylglyoxal release by TPI (diaminobenzene adduct)
Assay type: biochemical

Work on `N#Cc1c[nH]cc1-c1cccc2c1OC(F)(F)O2` [fludioxonil] yielded an IC50 of roughly 403 µM.

Source: paper PMC6433957, “Phenylpyrrole fungicides act on triosephosphate isomerase to induce methylglyoxal stress and alter hybrid histidine kinase activity” (Scientific Reports, 2019)
